Reference: US20010034319A1, “Photothermal vascular targeting with bioreductive agents” (priority 1999, published 2001)

Key:
[1] = tested on: KB cells (human pharyngeal SCC); experiment: Effect of POR alone on KB tumor volume in nude mice (Example IV); assay type: in vivo; settings: POR alone 2.50, 5.0, 7.5, 10.0 mg/kg ip vs saline control; days 0-13; FIG. 1
Method: KB cells (human pharyngeal SCC, American Type Culture Collection, Rockville, Md.) were maintained in culture medium consisting of 90% Minimal Essential medium (Gibco BRL, Grand Island, N.Y.) and 10% fetal bovine serum (Hyclone, Logan, Utah) with the addition of 10 nM nonessential amino acid (Gibco BRL) and antibiotics (penicillin, streptomycin: Gibco BRL). The cells were grown as monolayers in Falcon T150 flasks (Becton Dickinson, Franklin Lakes, N.J.) in a 37° C. humidified incubator with 5% CO2.
The effect of treatment on tumor volumes was determined using analysis of variance. […]
Fifteen mice, each with 4 tumor inoculations, were divided into 4 treatment groups and 1 control group. […] The 3 orthogonal diameters of the tumors were measured at days 0, 2, 4, 6, 8, 10, and 13 following POR injection. […]

[2] = tested on: KB cells (human pharyngeal SCC); experiment: POR with PDL limited to tumor area, KB tumors in nude mice (Example V); assay type: in vivo; settings: for effect of treatment on mean tumor volume (analysis of variance): repeated two days later, FIG. 2
Method: (§1) KB cells (human pharyngeal SCC, American Type Culture Collection, Rockville, Md.) were maintained in culture medium consisting of 90% Minimal Essential medium (Gibco BRL, Grand Island, N.Y.) and 10% fetal bovine serum (Hyclone, Logan, Utah) with the addition of […] nonessential amino acid (Gibco BRL) and antibiotics (penicillin, streptomycin: Gibco BRL). The cells were grown as monolayers in Falcon T150 flasks (Becton Dickinson, Franklin Lakes, N.J.) in a 37° C. humidified incubator with 5% CO2.
(§2) Prior to inoculation, the cells were rinsed with PBS lacking calcium and magnesium (Gibco BRL), trypsinized (Gibco BRL), counted, centrifuged at 1000 rpm for 6 min., and resuspended in normal saline for a final concentration of 1,000,000 cells/ml.
(§3) Six- to seven-week-old nude mice (Charles River Labs, Wilmington, Mass.) were sterilely housed and fed ad libitum. Intradermal inoculation of 0.05 ml of cell suspension (50,000 cells) was performed under general anesthesia (ether) using a 30 gauge hypodermic needle. After 5 days, the majority of the tumors were visually apparent and palpable.
(§4) The effect of treatment on tumor volumes was determined using analysis of variance. Multiple comparisons were performed using the Student-Newman-Keuls (SNK) test. P values less than 0.05 are considered significant.
Sixteen mice, each with 4 tumor inoculations, were divided into 3 treatment groups and 1 control group. On day 6 following tumor inoculation, the treatment groups received (1) ip POR only (10 mg/kg), (2) ip saline and PDL limited to tumor area (585 nm, 10 J/cm^2, 300-500 μs; Model SPTL-1a, Candela Corporation, Wayland, Mass.), or (3) ip POR (10 mg/kg) and PDL limited to the tumor area (585 nm, 10 J/cm^2, 300-500 μs). The control group received ip saline injections only. PDL irradiation was performed 15 min. after administration of POR or vehicle, using a laser handpiece that produced a 5 mm diameter irradiated spot with a uniform energy distribution on the tumor surface. An aluminum plate with holes of various diameters was used to shield areas beyond the tumor border. […]

[3] = tested on: KB cells (human pharyngeal SCC); experiment: POR with PDL extending beyond tumor area, KB tumors in nude mice (Example VI); assay type: in vivo
Method: as §1, §2, §3, §4
Twelve mice with 6 tumor inoculations were divided into 3 treatment groups and 1 control group. On day 5 following inoculation, the 4 groups were treated as in Example V except that the field of irradiation was extended to include a 2 to 3 mm periphery beyond the tumor edge. In addition, on the second treatment day, the fluence was raised from 10 to 15 J/cm^2. Tumor volume measurements were performed on days 0, 2, 4, 6, 8, 10, and 12 following the first treatment. Mice were weighed on day 0 and 6 following the first treatment. There were two anesthesia related deaths: one mouse from the control group and one mouse from the group receiving both PDL and POR died before day 10 and were therefore excluded from analysis.

[4] = tested on: normal skin tissue; experiment: POR with PDL treatment of normal skin tissue, histologic evaluation (Example VII); assay type: in vivo, Syrian golden hamsters; settings: PDL 15 min. after ip POR; biopsies 10 min. or 2 days after irradiation; hamster flank
Method: The effect on normal skin tissue of PDL irradiation with or without POR was determined using 6 adult Syrian golden hamsters. The hamsters were divided into two groups, and hair of each animal was shaved from an area of the flank. One group was irradiated with the PDL 15 min. after ip injection of POR, and the other group was irradiated without POR administration. Biopsies of treated sites were taken 10 min. or 2 days after irradiation. Specimens were fixed with formalin, embedded in paraffin, sectioned, and stained (H&E) for histologic evaluation.

[5] = tested on: human squamous cancer cells; experiment: PDL and POR on human squamous cancer cell tumors in hamster cheek pouch (Example VIII); assay type: in vivo, hamsters; settings: combined PDL (588 nm) and POR versus PDL only, FIG. 5
From the text: In this example, tumors were produced in the cheek pouches of hamsters by transplantation of human squamous cancer cells according to methods well known in the art. Hamsters were divided into four treatment groups: (1) control, (2) bioreductive agent porfiromycin only (POR), (3) 588 nm pulsed dye laser only (PDL), and (4) combined PDL and POR.

[6] = tested on: hypoxic cells; settings: compared with mitomycin C; cited from earlier work
[7] = Body weight / systemic toxicity monitoring of POR in tumor-bearing mice (Example IV); settings: POR 2.50-10.0 mg/kg ip; mice weighed days 0-13
Method: Fifteen mice, each with 4 tumor inoculations, were divided into 4 treatment groups and 1 control group. Five days after tumor inoculation, the 4 treatment groups received 2.50, 5.0, 7.5, and 10.0 mg/kg intraperitoneal (ip) injections of POR (Vion Pharmaceuticals, Inc., New Haven, Conn.) dissolved in sterile water. […] All mice were anesthetized during ip injections and tumor measurements. […] The mice were weighed at the time of each tumor measurement to monitor for any systemic toxicity of POR.

CO[C@@]12[C@H](COC(N)=O)C3=C(C(=O)C(C)=C(N)C3=O)N1C[C@H]1[C@@H]2N1C (stereo partly drawn) [POR, porfiromycin]
effect of treatment on mean tumor volume (analysis of variance) [1]: no significant effect of treatment at any point in time | effect of treatment on mean tumor volume (analysis of variance) ([2]; ip POR 10 mg/kg and PDL limited to tumor area (585 nm, 10 J/cm^2)): no significant effect of treatment at any point in time | skin sloughing / epithelial necrosis in laser treatment groups ([2]; ip POR 10 mg/kg and PDL limited to tumor area, gross and histological): no gross evidence of skin sloughing or any histological evidence of epithelial necrosis | effect of treatment on mean tumor volume (analysis of variance) ([2]; ip POR only 10 mg/kg, days 0-13): no significant effect of treatment at any point in time | tumor volume versus controls (SNK test) ([3]; POR 10 mg/kg ip with PDL including 2 to 3 mm margin (10 then 15 J/cm^2), all tumors, FIG. 3): differed from the controls from day 6 onward | tumor volume versus controls (SNK test) ([3]; POR alone 10 mg/kg ip, all tumors, FIG. 3): differed from the controls from day 6 onward | tumor volume, PDL with POR versus PDL without POR ([3]; all tumors, PDL including tumor margin, FIG. 3): no significance between the effects of PDL irradiation with and without POR at any time | tumor volume, PDL with POR versus PDL without POR (SNK test) ([3]; only the largest 33% of tumors on day 0, PDL including tumor margin, FIG. 4): significant difference between PDL with and without POR at all days after day 6 | damage to normal skin after PDL irradiation (histologic and clinical) [4]: no microscopic or clinical evidence of epithelial necrosis or other damage to tissue structures beyond the blood vessels | tumor regression and remission [5]: tumor regression and remission following laser vascular targeting is enhanced | preferential toxicity for hypoxic cells [6]: greater for POR than mitomycin C | effect of treatment on body weight / acute toxicity [7]: no significant effect of treatment on body weight, or any other indication of acute toxicity
